Assay results taken from patent US20240400582A1, “FOUR-MEMBERED FUSED RING COMPOUND AND PREPARATION METHOD AND USE THEREOF” (JIANGSU HANSOH PHARMACEUTICAL GROUP CO., LTD., priority 2021, published 2024).
Values belong to the compound of their own block, whether it stands above or below them.

Experiments:
KCL22-r = test: Inhibition of proliferation of KCL22-r cells (CellTiter-Glo); assay type: cell-based; settings: Homo sapiens, 72 h, imatinib-resistant strain
Text: (§1) To evaluate the inhibitory activity of the compounds of the present invention against proliferation of human erythroleukemia cells K562, human peripheral blood basophilic leukemia cells Ku812, and human chronic myelogenous leukemia cells KCL22-s and KCL22-r cultured in vitro.
(§2) CellTiter-Glo® Luminescent Cell Viability Assay was used to detect the inhibitory effect of drugs on tumor cell proliferation and growth. The logarithmic growth phase cells cultured overnight were directly taken, blown, mixed and counted, the cell density was adjusted according to different cell density requirements, and the cells were prepared into a cell suspension and plated on a 96-well plate. Drugs at different concentrations were added, three replicate wells were set for each concentration, and corresponding solvent controls were set. The maximum concentration of compound detected was 500 nM, with 3-fold gradient dilution, and a total of 9 concentrations (500-0.076 nM). […] The culture plate and its contents were equilibrated to room temperature, the CellTiter-Glo® reagent was added, the contents were mixed on a shaker for 3 min to induce cell lysis, the culture plate was further incubated at room temperature in the dark for 10 min, and the chemiluminescence signal value was determined by a microplate reader (BioTek SynergyH1).

Ba/F3 BCR-ABL1-E255K = test: Inhibition of proliferation of Ba/F3 BCR-ABL1-E255K cells (CellTiter-Glo); assay type: cell-based; settings: Mus musculus, BaF3, 72 h
Text: (§3) To evaluate the inhibitory activity of the compound of the present invention against proliferation of the Ba/F3 BCR-ABL1-T315I, Ba/F3 BCR-ABL1-E255K, Ba/F3 BCR-ABL1-E255V, and Ba/F3 BCR-ABL1-G250E mutation models of mouse primary B cells cultured in vitro.
(§4) CellTiter-Glo® Luminescent Cell Viability Assay was used to detect the inhibitory effect of drugs on tumor cell proliferation and growth. The logarithmic growth phase cells cultured overnight were directly taken, blown, mixed and counted, the cell density was adjusted according to different cell density requirements, and the cells were prepared into a cell suspension and plated on a 96-well plate. Drugs at different concentrations were added, 3 replicate wells were set for each concentration, and corresponding vehicle controls were eset. […] The maximum concentration of the compounds detected in other cells was 500 nM, with 3.16-fold gradient dilution, and a total of 9 concentrations (500-0.0503 nM). […] The culture plate and its contents were equilibrated to room temperature, the CellTiter-Glo® reagent was added, the contents were mixed on a shaker for 5 min to induce cell lysis, the culture plate was further incubated at room temperature in the dark for 20 min, and the luminescence was read with a microplate reader.

Ba/F3 BCR-ABL1-T315I = test: Inhibition of proliferation of Ba/F3 BCR-ABL1-T315I cells (CellTiter-Glo); assay type: cell-based; settings: Mus musculus, BaF3, 72 h
Text: as §3, §4

[1] = test system: human chronic myeloid leukemia cell line KCL22-s xenograft tumor; test: Anti-tumor efficacy in KCL22-s subcutaneous xenograft tumor model; assay type: in vivo, BALB/c nude mouse; settings: oral, dosing cycle 15 days
Method: To evaluate the efficacy of the test compound on the human chronic myeloid leukemia cell strain KCL22-s in the BALB/c nude mouse subcutaneous xenograft tumor model.
BALB/c nude mice, 8-10 weeks.
The resuscitated cells were placed in a cell culture flask (the cell type, date, name of the person for culture and so on were marked on the flask wall) and then placed in a CO2 incubator (the incubator temperature was 37° C. and the CO2 concentration was 5%) for incubation. • b, The cells were passaged. After passage, the cells continued to be cultured in the CO2 incubator. This process was repeated until the cell number met the in vivo drug efficacy requirements. • c, The cultured cells were collected and counted with a fully automatic cell counter.
• a, According to the tumor growth, the tumor was measured on the 15th day after inoculation and the tumor size was calculated.

Ku812 = test: Inhibition of proliferation of Ku812 cells (CellTiter-Glo); assay type: cell-based; settings: Homo sapiens, 72 h
Text: as §1, §2

KCL22-s = test: Inhibition of proliferation of KCL22-s cells (CellTiter-Glo); assay type: cell-based; settings: Homo sapiens, 72 h, imatinib-sensitive strain
Text: as §1, §2

K562 = test: Inhibition of proliferation of K562 cells (CellTiter-Glo); assay type: cell-based; settings: Homo sapiens, 72 h
Text: as §1, §2

Ba/F3 BCR-ABL1-E255V = test: Inhibition of proliferation of Ba/F3 BCR-ABL1-E255V cells (CellTiter-Glo); assay type: cell-based; settings: Mus musculus, BaF3, 72 h
Text: as §3, §4

ABL1 WT kinase = ABL1 WT kinase (Homo sapiens (Human), UniProt P00519); test: In vitro enzymatic inhibitory activity against ABL1 WT kinase (capillary electrophoresis, EZ reader); assay type: biochemical; settings: maximum concentration 1 μM
Method: Capillary electrophoresis was used to detect the phosphorylation conversion rate of the substrate peptide to determine the IC50 value of the test compound for inhibiting the kinase (ABL1-WT). The maximum concentration of the compound tested in the test was 1000 nM, with 3-fold dilution, and a total of 12 concentrations (1000-0.0056 nM). First, an enzyme reaction system (the concentration of enzyme ABL1-WT was 1.3 nM, the concentration of substrate FLPeptide2 was 1.5 μM, and the reaction factor was 10 mM MgCl2) was prepared. After incubation at room temperature for 30 min, […] of 4×ATP solution was added to start the enzyme reaction. After reacting at room temperature for 90 min, the reaction was stopped by adding a stop buffer (containing 0.5 M EDTA). The sample was analyzed using an EZ reader (analysis conditions: pressure −1.5 PSI, upper voltage current −2250V, lower voltage current −500V, separation time 40 sec, and system delay 100.0 sec).
From the conversion rate read by EZ Reader, the remaining activity was calculated according to the following formula.
IC50 was calculated using XLfit, and IC50 was calculated by Formula 201 as the fitting formula.

Ba/F3 BCR-ABL1-G250E = test: Inhibition of proliferation of Ba/F3 BCR-ABL1-G250E cells (CellTiter-Glo); assay type: cell-based; settings: Mus musculus, BaF3, 72 h
Text: as §3, §4

ABL1 WT kinase, sequence (P00519 whole entry): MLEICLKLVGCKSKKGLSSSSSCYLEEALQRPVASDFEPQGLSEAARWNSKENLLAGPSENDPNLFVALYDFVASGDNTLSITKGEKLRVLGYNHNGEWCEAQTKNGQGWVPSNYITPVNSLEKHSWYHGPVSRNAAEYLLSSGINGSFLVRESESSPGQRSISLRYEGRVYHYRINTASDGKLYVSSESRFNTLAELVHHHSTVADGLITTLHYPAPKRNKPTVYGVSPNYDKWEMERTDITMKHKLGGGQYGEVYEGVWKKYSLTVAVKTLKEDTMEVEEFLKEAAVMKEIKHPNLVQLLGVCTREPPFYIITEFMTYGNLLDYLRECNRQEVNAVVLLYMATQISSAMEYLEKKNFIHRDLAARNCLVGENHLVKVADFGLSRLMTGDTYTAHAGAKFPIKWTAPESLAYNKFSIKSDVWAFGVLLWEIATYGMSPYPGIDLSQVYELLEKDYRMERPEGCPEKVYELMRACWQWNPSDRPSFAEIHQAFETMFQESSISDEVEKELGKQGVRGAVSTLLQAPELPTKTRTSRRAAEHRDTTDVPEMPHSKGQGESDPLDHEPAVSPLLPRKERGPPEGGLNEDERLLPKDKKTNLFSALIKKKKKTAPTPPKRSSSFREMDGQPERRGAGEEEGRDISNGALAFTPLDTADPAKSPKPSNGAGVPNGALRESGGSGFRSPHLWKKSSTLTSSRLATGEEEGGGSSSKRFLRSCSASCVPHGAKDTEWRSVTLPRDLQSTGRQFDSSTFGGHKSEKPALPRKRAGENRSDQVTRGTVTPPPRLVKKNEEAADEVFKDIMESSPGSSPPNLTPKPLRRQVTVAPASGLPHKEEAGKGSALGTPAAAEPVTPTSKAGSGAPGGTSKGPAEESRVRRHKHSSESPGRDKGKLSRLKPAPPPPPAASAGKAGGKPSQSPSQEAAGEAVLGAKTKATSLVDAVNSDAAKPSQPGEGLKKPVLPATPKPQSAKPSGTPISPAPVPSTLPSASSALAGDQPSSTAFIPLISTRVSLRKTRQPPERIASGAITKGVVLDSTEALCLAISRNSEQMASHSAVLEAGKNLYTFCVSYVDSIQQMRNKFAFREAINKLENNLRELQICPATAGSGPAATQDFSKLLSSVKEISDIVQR

- IC50 (Ba/F3 BCR-ABL1-E255K): 26.3 nM
- IC50 (Ba/F3 BCR-ABL1-T315I): 46.8 nM
- IC50 (K562): 13 nM
- IC50 (Ba/F3 BCR-ABL1-E255V): 7.15 nM
- IC50 (ABL1 WT kinase): 0.43 nM
- IC50 (Ba/F3 BCR-ABL1-G250E): 5.36 nM
SMILES: C[C@@H]1COC2NC=NC=C2c2cc(C(=O)Nc3ccc(OC(F)(F)Cl)cc3)cc3nc(C(F)F)n1c23.Cc1ccc(S(=O)(=O)O)cc1 (stereo partly drawn) [Example 1, (3R)-N-(4-(chlorodifluoromethoxy)phenyl)-2-(difluoromethyl)-3-methyl-3,4,5a,6-tetrahydro-5-oxa-1,2a,6,8-tetraazabenzo[4,5]cyclooctyl[1,2,3-cd]indene-11-carboxamide p-toluenesulfonate Salt]
- IC50 (KCL22-r): 14.6 nM
- T/C ([1]; 1.5 mg/kg bid): 7.05%
- TGI ([1]; 1.5 mg/kg bid): 98.20%
- Tumor volume ([1]; 1.5 mg/kg bid): 143 ± 35 mm^3
- T/C ([1]; 3 mg/kg bid): 0.69%
- TGI ([1]; 3 mg/kg bid): 187.08%
- Tumor volume ([1]; 3 mg/kg bid): 14 ± 5 mm^3
- T/C ([1]; 3 mg/kg qd): 3.98%
- TGI ([1]; 3 mg/kg qd): 127.26%
- Tumor volume ([1]; 3 mg/kg qd): 81 ± 19 mm^3
- T/C ([1]; 7.5 mg/kg bid): 0.52%
- TGI ([1]; 7.5 mg/kg bid): 190.62%
- Tumor volume ([1]; 7.5 mg/kg bid): 11 ± 7 mm^3
- IC50 (Ku812): 4.13 nM
- IC50 (KCL22-s): 2.99 nM

SMILES: Cc1ccc(NC(=O)c2ccc(CN3CCN(C)CC3)cc2)cc1Nc1nccc(-c2cccnc2)n1 [Imatinib, reference compound]
- T/C ([1]; 75 mg/kg qd): 46.92%
- TGI ([1]; 75 mg/kg qd): 56.03%
